In PubChem BioAssay AID2060898 (Molecular Pharmacology Branch, DTP, NCI, 2025):

Test system: 616215-338-R-J1-PDC complex spheroid viability
Assay: Anticancer human tumor 616215-338-R-J1-PDC patient-derived colon adenocarcinoma cell line growth inhibition [RAS]
Settings: for IC50: curve of first compound; for viability, T/C: stronger effect = lower value
Outline: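 Tumour cells grown as complex spheroids with HUVEC endothelial cells and mesenchymal stem cells, treated with RAS pathway inhibitor combinations. Each agent spans half-log steps from near clinical Cmax, or 10 microM where Cmax is unknown.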
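Also: spheroids exposed to agents for seven days before viability readout.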
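For viability, T/C in this document: 100% = DMSO vehicle control viability.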

SMILES: C=CC(=O)N1CCN(c2nc(OCC3CCCN3C)nc3c(F)c(-c4nc(N)cc(C)c4C(F)(F)F)c(Cl)cc23)C(C)C1 (centres undefined) + CCn1c(-c2cccnc2C(C)OC)c2c3cc(ccc31)N1CCOC(CC(NC(=O)C(C(C)C)N(C)C(=O)C3(F)CCN(C(=O)C#CC(C)(C)N(C)C)CC3)C(=O)N3CCCC(N3)C(=O)OCC(C)(C)C2)C1
- IC50 (second compound 0.000949 µM): > 1000 nM
- IC50 (second compound 0.003 µM): > 1000 nM
- IC50 (second compound 0.00949 µM): > 1000 nM
- IC50 (second compound 0.03 µM): > 1000 nM
- IC50 (second compound 0.0949 µM): > 1000 nM
- IC50 (second compound 0.3 µM): > 1000 nM
- viability, T/C (second compound 0.000949 µM, first compound 0.00316 µM): 106%
- viability, T/C (second compound 0.000949 µM, first compound 0.01 µM): 100%
- viability, T/C (second compound 0.000949 µM, first compound 0.0316 µM): 106%
- viability, T/C (second compound 0.000949 µM, first compound 0.1 µM): 108%
- viability, T/C (second compound 0.000949 µM, first compound 0.316 µM): 115%
- viability, T/C (second compound 0.000949 µM, first compound 1 µM): 103%
- viability, T/C (second compound 0.003 µM, first compound 0.00316 µM): 103%
- viability, T/C (second compound 0.003 µM, first compound 0.01 µM): 114%
- viability, T/C (second compound 0.003 µM, first compound 0.0316 µM): 100%
- viability, T/C (second compound 0.003 µM, first compound 0.1 µM): 111%
- viability, T/C (second compound 0.003 µM, first compound 0.316 µM): 116%
- viability, T/C (second compound 0.003 µM, first compound 1 µM): 101%
- viability, T/C (second compound 0.00949 µM, first compound 0.00316 µM): 106%
- viability, T/C (second compound 0.00949 µM, first compound 0.01 µM): 101%
- viability, T/C (second compound 0.00949 µM, first compound 0.0316 µM): 106%
- viability, T/C (second compound 0.00949 µM, first compound 0.1 µM): 104%
- viability, T/C (second compound 0.00949 µM, first compound 0.316 µM): 106%
- viability, T/C (second compound 0.00949 µM, first compound 1 µM): 100%
- viability, T/C (second compound 0.03 µM, first compound 0.00316 µM): 118%
- viability, T/C (second compound 0.03 µM, first compound 0.01 µM): 110%
- viability, T/C (second compound 0.03 µM, first compound 0.0316 µM): 105%
- viability, T/C (second compound 0.03 µM, first compound 0.1 µM): 115%
- viability, T/C (second compound 0.03 µM, first compound 0.316 µM): 101%
- viability, T/C (second compound 0.03 µM, first compound 1 µM): 98.6%
- viability, T/C (second compound 0.0949 µM, first compound 0.00316 µM): 135%
- viability, T/C (second compound 0.0949 µM, first compound 0.01 µM): 113%
- viability, T/C (second compound 0.0949 µM, first compound 0.0316 µM): 109%
- viability, T/C (second compound 0.0949 µM, first compound 0.1 µM): 127%
- viability, T/C (second compound 0.0949 µM, first compound 0.316 µM): 126%
- viability, T/C (second compound 0.0949 µM, first compound 1 µM): 116%
- viability, T/C (second compound 0.3 µM, first compound 0.00316 µM): 117%
- viability, T/C (second compound 0.3 µM, first compound 0.01 µM): 108%
- viability, T/C (second compound 0.3 µM, first compound 0.0316 µM): 107%
- viability, T/C (second compound 0.3 µM, first compound 0.1 µM): 112%
- viability, T/C (second compound 0.3 µM, first compound 0.316 µM): 113%
- viability, T/C (second compound 0.3 µM, first compound 1 µM): 107%

SMILES: CC1(C)CCC(Nc2ncc(C(F)(F)F)c(-c3c[nH]c4c(P(C)(C)=O)c(C#N)ccc34)n2)CN1 (centres undefined) + CCn1c(-c2cccnc2C(C)OC)c2c3cc(ccc31)N1CCOC(CC(NC(=O)C(C(C)C)N(C)C(=O)C3(F)CCN(C(=O)C#CC(C)(C)N(C)C)CC3)C(=O)N3CCCC(N3)C(=O)OCC(C)(C)C2)C1
- IC50 (second compound 0.000949 µM): 15.8 nM
- IC50 (second compound 0.003 µM): 15.3 nM
- IC50 (second compound 0.00949 µM): 13.9 nM
- IC50 (second compound 0.03 µM): 13.3 nM
- IC50 (second compound 0.0949 µM): 9.25 nM
- IC50 (second compound 0.3 µM): 8.41 nM
- viability, T/C (second compound 0.000949 µM, first compound 0.000949 µM): 108%
- viability, T/C (second compound 0.000949 µM, first compound 0.003 µM): 107%
- viability, T/C (second compound 0.000949 µM, first compound 0.00949 µM): 62.8%
- viability, T/C (second compound 0.000949 µM, first compound 0.03 µM): 34.2%
- viability, T/C (second compound 0.000949 µM, first compound 0.0949 µM): 33.9%
- viability, T/C (second compound 0.000949 µM, first compound 0.3 µM): 31.9%
- viability, T/C (second compound 0.003 µM, first compound 0.000949 µM): 107%
- viability, T/C (second compound 0.003 µM, first compound 0.003 µM): 111%
- viability, T/C (second compound 0.003 µM, first compound 0.00949 µM): 60.2%
- viability, T/C (second compound 0.003 µM, first compound 0.03 µM): 39.3%
- viability, T/C (second compound 0.003 µM, first compound 0.0949 µM): 32.2%
- viability, T/C (second compound 0.003 µM, first compound 0.3 µM): 35.2%
- viability, T/C (second compound 0.00949 µM, first compound 0.000949 µM): 113%
- viability, T/C (second compound 0.00949 µM, first compound 0.003 µM): 103%
- viability, T/C (second compound 0.00949 µM, first compound 0.00949 µM): 57%
- viability, T/C (second compound 0.00949 µM, first compound 0.03 µM): 35.7%
- viability, T/C (second compound 0.00949 µM, first compound 0.0949 µM): 32.9%
- viability, T/C (second compound 0.00949 µM, first compound 0.3 µM): 36.5%
- viability, T/C (second compound 0.03 µM, first compound 0.000949 µM): 115%
- viability, T/C (second compound 0.03 µM, first compound 0.003 µM): 117%
- viability, T/C (second compound 0.03 µM, first compound 0.00949 µM): 57%
- viability, T/C (second compound 0.03 µM, first compound 0.03 µM): 34.6%
- viability, T/C (second compound 0.03 µM, first compound 0.0949 µM): 32.9%
- viability, T/C (second compound 0.03 µM, first compound 0.3 µM): 32.4%
- viability, T/C (second compound 0.0949 µM, first compound 0.000949 µM): 119%
- viability, T/C (second compound 0.0949 µM, first compound 0.003 µM): 93%
- viability, T/C (second compound 0.0949 µM, first compound 0.00949 µM): 50.3%
- viability, T/C (second compound 0.0949 µM, first compound 0.03 µM): 27.6%
- viability, T/C (second compound 0.0949 µM, first compound 0.0949 µM): 31.2%
- viability, T/C (second compound 0.0949 µM, first compound 0.3 µM): 27.1%
- viability, T/C (second compound 0.3 µM, first compound 0.000949 µM): 95.1%
- viability, T/C (second compound 0.3 µM, first compound 0.003 µM): 95.3%
- viability, T/C (second compound 0.3 µM, first compound 0.00949 µM): 44.8%
- viability, T/C (second compound 0.3 µM, first compound 0.03 µM): 28.8%
- viability, T/C (second compound 0.3 µM, first compound 0.0949 µM): 28.4%
- viability, T/C (second compound 0.3 µM, first compound 0.3 µM): 34.6%
